The test system of assay [1] is NF-κB dependent transcription. As to the kind of experiment: In vivo basal NF-κB dependent transcription in NF-κB::Luc reporter mice, abdominal imaging. The conditions noted are these: 300 mg/kg s.c., 4 hours post administration; p<0.01. An excerpt:
GL1001 was further tested for in vivo anti-inflammatory activity by examining its effects on basal levels of NF-κB dependent transcription in mice engineered in the germline with a construct containing an NF-κB enhancer linked to a luciferase gene (i.e., NF-κB::Luc mice), such that this NF-κB reporter construct is present in all cells of the mice.
More particularly, transgenic NF-κB::Luc mice were generated using three NF-κB response elements from the Igκ light chain promoter fused to a firefly luciferase gene as described by Carlsen et al. (2002) J. Immunol. 168:1441-1446. Pronuclear microinjection of purified construct DNA was used to generate transgenic founders in the C57BL/6 XCBA/J background. Founders were subsequently back crossed to the C57BL/6 albino background. […] Signal data were also quantitated and archived using the Living Image® software. Photons of light were quantitated using an oval region of interest (ROI) of varying sizes depending on the procedure, as described further below.
To test for in vivo effects of GL1001 on basal levels of NF-κB dependent transcription, male NF-κB::Luc mice were subjected to quantitative in vivo imaging of the abdominal area (using a fixed ROI of 2.76×3.7 cm) as described above, immediately before, and at 2, […]

Assay [2] has as its system NF-κB dependent transcription. As to the kind of experiment: TNFα-induced activation of NF-κB in recombinant HeLa reporter cells (luciferase). The class given is cell-based. The conditions noted are these: TNFα 20 ng/ml, 6 hours, HeLa NF-κB-luc. The source says:
To test the ACE2 inhibitor GL1001 for anti-inflammatory activity relevant to gastrointestinal inflammatory disease, more particularly pancreatitis, effects of the compound on activation of NF-κB dependent transcription by TNFα were examined in recombinant reporter cells containing a construct with a luciferase reporter gene under control of NF-κB dependent regulatory sequences, thereby allowing detection of NF-κB dependent transcription by measuring reporter enzyme using a conventional luciferase activity assay based on detection of generated light.
In particular, HeLa cells (American Type Culture Collection) were grown in Dulbecco's modified Eagles medium (DMEM) supplemented with 10% fetal calf serum and transiently transfected with an NF-κB-luc construct (Stratagene, Inc.), as follows (with all incubation steps at 37 C unless otherwise indicated). Cells were seeded and grown to about 70% confluency in a 10 cm cell culture dish. Plasmid DNA (10 μg) was added to 1 ml serum free DMEM media in a tube. Fugene 6 transfection reagent (30 μl) (Roche) was then pipetted slowly into the tube and the contents were gently mixed by inversion. The mixture was incubated at room temperature for 15 minutes and then added dropwise to cells in one 10 cm dish. […] Bioluminescence was then measured using a Veritas luminometer (Turner BioSystems). […]

Assay [3] has as its system activator protein-1 (AP-1). As to the kind of experiment: Basal in vivo reporter luciferase expression in AP-1::Luc mice. As to conditions: data not shown.
Assay [4] deals with NF-κB dependent transcription. Briefly: LPS-induced NF-κB dependent transcription in extracted organs of NF-κB::Luc mice (luciferase assay). It counts as in vivo. As to conditions: 30 mg/kg GL1001 + 0.5 mg/kg LPS vs LPS alone; stomach. The source says: For luciferase assays, organs were extracted and snap frozen in liquid nitrogen. All tissue samples were placed in lysis buffer with inhibitors (Passive Lysis Buffer (Promega) and Complete Mini Protease Inhibitor Cocktail (Roche, Indianapolis, Ind.)), and were homogenized using a tissue homogenizer (Handishear, Hand-held homogenizer, VirTis, Gardiner, N.Y.). Tissue homogenates were centrifuged and clarified lysates were used for luminometer assays and western blots. For the luminometer assays, Luciferase Assay Substrate (Luciferase Assay System, Promega) was prepared as indicated by the manufacturer and placed in disposable cuvettes. […] Background luminescence readings were obtained and the background readings were subtracted from the luminescent data. Protein concentrations were determined using the BCA Protein Assay Kit (Pierce, Rockford, Ill.) following the manufacturer's protocols and analyzed using a VERSAmax tuneable microplate reader and associated Softmax Pro version 3.1.2 software (Molecular Devices, Sunnyvale Calif.). The luminescence for each of the protein lysates was calculated as arbitrary units of light per microgram of protein. […]
GL1001 was further tested for in vivo anti-inflammatory activity by examining its effects on bacterial LPS induced NF-κB dependent transcription, in NF-κB::Luc mice. […] Luciferase signal was quantitated from several regions of interest. […]

For assay [5], the system named is spontaneous CP in male WBN/Kob rats. As to conditions: Kuno et al. (2003); cited from earlier work.
Assay [6] deals with acute pancreatitis induced by cerulein. The conditions noted are these: Tsang et al. (2004); cited from earlier work.

For `CC(C)C[C@H](N[C@@H](Cc1cncn1Cc1cc(Cl)cc(Cl)c1)C(=O)O)C(=O)O` [GL1001, (S,S)-2-[1-carboxy-2-[3-(3,5-dichlorobenzyl)-3H-imidazol-4-yl]-ethylamino]-4-methylpentanoic acid], the “inhibition of basal in vivo NF-κB dependent transcription in abdominal ROI” value in assay [1] is “over 40%”. In addition, the “inhibition of TNFα induced activation of NF-κB dependent transcription” value in assay [2] (at 8 nM) is listed as “over 80%”. In addition, the “maximal inhibition of TNFα induced activation of NF-κB dependent transcription” value in assay [2] (at 0.2 μM) was “over 95%”. In assay [3], the “effect on basal in vivo reporter luciferase expression” value is recorded as “no significant effect”. In addition, the “reduction of LPS induced NF-κB-dependent transcription in stomachs” value in assay [4] is reported as “about 37 fold”.

On to `NCCCC[C@H](N[C@@H](CCc1ccccc1)C(=O)O)C(=O)N1CCC[C@H]1C(=O)O` [lisinopril], for which the “pancreatic fibrosis in animal model of CP” value in assay [5] is “attenuated”.

`CCCCc1nc(Cl)c(CO)n1Cc1ccc(-c2ccccc2-c2nn[nH]n2)cc1` [losartan]: in assay [6], the “severity of acute pancreatitis induced by cerulein” value is recorded as “markedly reduced”.

Values taken from patent US20120009183A1, “METHOD FOR TREATMENT OF PANCREATITIS” (Ore Pharmaceuticals Inc., priority 2007, published 2012).
